Source: patent US20250215012A1, “IKZF2 DEGRADERS AND USES THEREOF” (REGENTS OF THE UNIVERSITY OF MICHIGAN, priority 2022, published 2025)

Target: IKZF2 (Homo sapiens (Human), UniProt Q96SW2+Q9UKS7)
Assay: IKZF2 HiBiT Assay (Jurkat-IKZF2-HiBiT cell line)
Format: cell-based
Details: Jurkat-IKZF2-HiBiT cells, 24 hours; for DC50: read-out: HiBit assay degradation analysis DC50; for Dmax: read-out: HiBit assay degradation analysis Dmax
How it was run: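 IKZF2 degradation was assessed as HiBiT luminescence in Jurkat-IKZF2-HiBiT cells, using lytic detection after 24 h of compound treatment at 37 °C, 5% CO2.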

IKZF2, sequence (Q9UKS7 whole entry): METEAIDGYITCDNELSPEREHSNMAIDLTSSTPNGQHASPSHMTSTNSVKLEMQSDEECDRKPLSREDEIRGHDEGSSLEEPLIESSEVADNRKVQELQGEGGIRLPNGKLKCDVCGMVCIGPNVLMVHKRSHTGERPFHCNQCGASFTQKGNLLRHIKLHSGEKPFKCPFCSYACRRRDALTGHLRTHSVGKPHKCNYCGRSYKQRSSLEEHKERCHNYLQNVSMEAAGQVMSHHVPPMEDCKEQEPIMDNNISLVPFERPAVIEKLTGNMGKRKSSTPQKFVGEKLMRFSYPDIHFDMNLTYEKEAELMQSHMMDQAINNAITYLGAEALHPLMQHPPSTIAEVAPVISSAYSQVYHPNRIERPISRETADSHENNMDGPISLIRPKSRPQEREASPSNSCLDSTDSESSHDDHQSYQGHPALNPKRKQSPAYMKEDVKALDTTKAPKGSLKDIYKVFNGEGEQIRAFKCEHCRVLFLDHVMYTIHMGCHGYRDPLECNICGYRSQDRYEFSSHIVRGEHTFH
IKZF2, sequence (Q96SW2 whole entry): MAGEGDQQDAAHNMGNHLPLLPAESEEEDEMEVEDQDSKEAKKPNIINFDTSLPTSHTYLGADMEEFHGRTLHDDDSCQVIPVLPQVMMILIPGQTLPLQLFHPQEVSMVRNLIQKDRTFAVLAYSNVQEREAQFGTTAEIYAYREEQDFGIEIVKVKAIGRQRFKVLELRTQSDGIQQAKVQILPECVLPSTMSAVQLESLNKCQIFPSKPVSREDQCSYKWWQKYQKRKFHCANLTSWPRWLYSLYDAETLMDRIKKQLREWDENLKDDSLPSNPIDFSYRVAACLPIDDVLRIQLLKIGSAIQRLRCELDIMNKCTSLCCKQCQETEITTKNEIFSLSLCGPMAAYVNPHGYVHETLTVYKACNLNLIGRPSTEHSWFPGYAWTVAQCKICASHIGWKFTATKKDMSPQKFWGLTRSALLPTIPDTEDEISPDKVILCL
IKZF2, sequence (Q16531 whole entry partner): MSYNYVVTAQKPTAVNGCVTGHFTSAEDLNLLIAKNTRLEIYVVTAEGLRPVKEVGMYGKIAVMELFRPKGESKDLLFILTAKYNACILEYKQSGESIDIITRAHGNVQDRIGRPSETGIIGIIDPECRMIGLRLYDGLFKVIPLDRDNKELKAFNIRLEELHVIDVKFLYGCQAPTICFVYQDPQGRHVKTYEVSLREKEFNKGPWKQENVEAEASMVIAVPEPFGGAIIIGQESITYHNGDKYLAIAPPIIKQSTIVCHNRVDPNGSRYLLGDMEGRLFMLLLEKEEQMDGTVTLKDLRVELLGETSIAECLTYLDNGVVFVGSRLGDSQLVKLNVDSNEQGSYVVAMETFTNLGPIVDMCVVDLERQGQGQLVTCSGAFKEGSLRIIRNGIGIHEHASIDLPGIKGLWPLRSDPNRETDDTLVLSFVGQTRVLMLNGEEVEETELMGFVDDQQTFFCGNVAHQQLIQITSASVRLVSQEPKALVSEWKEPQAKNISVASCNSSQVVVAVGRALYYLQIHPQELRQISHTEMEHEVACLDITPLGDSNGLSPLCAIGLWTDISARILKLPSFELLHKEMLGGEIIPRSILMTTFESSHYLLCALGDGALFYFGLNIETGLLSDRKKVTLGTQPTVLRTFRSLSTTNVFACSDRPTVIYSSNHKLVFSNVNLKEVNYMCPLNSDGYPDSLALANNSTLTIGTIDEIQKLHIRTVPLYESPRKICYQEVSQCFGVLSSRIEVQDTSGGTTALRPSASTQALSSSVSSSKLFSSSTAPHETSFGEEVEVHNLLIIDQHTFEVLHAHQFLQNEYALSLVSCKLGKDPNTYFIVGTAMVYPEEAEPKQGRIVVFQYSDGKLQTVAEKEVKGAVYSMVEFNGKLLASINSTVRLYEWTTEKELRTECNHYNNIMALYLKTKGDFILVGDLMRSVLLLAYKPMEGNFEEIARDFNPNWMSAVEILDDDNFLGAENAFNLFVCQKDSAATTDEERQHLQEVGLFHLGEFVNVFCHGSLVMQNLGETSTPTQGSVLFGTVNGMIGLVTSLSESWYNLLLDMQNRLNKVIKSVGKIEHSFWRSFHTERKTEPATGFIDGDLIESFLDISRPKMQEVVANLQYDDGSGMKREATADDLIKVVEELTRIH

SMILES	DC50	Dmax
O=C1CC[C@H](N2Cc3c(ccc4c3OCC43CCN(Cc4cccc(C5CCOC5)c4)CC3)C2=O)C(=O)N1 (stereo partly drawn) [Compound A304, (3S)-3-(6-oxo-1′-(3-(tetrahydrofuran-3-yl)benzyl)-6,8-dihydro-2H,7H-spiro[furo[2,3-e]isoindole-3,4′-piperidin]-7-yl)piperidine-2,6-dione]	> 0.5 µM	40 to 60%
O=C1CC[C@H](N2Cc3c(ccc4c3OCC43CCN(CC4CCCN(C(=O)c5ccccc5)C4)CC3)C2=O)C(=O)N1 (stereo partly drawn) [Compound A305, (3S)-3-(1′-((1-benzoylpiperidin-3-yl)methyl)-6-oxo-6,8-dihydro-2H,7H-spiro[furo[2,3-e]isoindole-3,4′-piperidin]-7-yl)piperidine-2,6-dione]	> 0.5 µM	40 to 60%
CN1CC2(CCN(Cc3cccc(-c4cnn(C)c4)c3)CC2)c2ccc3c(c21)CN(C1CCC(=O)NC1=O)C3=O (centres unmarked) [Compound A308, 3-(1′-methyl-1-(3-(1-methyl-1H-pyrazol-4-yl)benzyl)-6′-oxo-1′,2′,6′,8′-tetrahydro-7′H-spiro[piperidine-4,3′-pyrrolo[3,4-g]indol]-7′-yl)piperidine-2,6-dione]	> 0.5 µM	< 40%
Cn1cc(-c2cccc(CN3CCC4(CC3)CNc3c4ccc4c3CN(C3CCC(=O)NC3=O)C4=O)c2)cn1 (centres unmarked) [Compound A309, 3-(1-(3-(1-methyl-1H-pyrazol-4-yl)benzyl)-6′-oxo-1′,2′,6′,8′-tetrahydro-7′H-spiro[piperidine-4,3′-pyrrolo[3,4-g]indol]-7′-yl)piperidine-2,6-dione]	> 0.5 µM	40 to 60%
O=C1CCC(N2Cc3c(ccc4c3OCC43CCN(Cc4cnn(-c5ccccc5F)c4)CC3)C2=O)C(=O)N1 (centres unmarked) [Compound A310, 3-(1′-((1-(2-fluorophenyl)-1H-pyrazol-4-yl)methyl)-6-oxo-6,8-dihydro-2H,7H-spiro[furo[2,3-e]isoindole-3,4′-piperidin]-7-yl)piperidine-2,6-dione]	> 0.5 µM	< 40%
O=C1CCC(N2Cc3c(ccc4c3OCC43CCN(Cc4cnn(-c5cccc(F)c5)c4)CC3)C2=O)C(=O)N1 (centres unmarked) [Compound A311, 3-(1′-((1-(3-fluorophenyl)-1H-pyrazol-4-yl)methyl)-6-oxo-6,8-dihydro-2H,7H-spiro[furo[2,3-e]isoindole-3,4′-piperidin]-7-yl)piperidine-2,6-dione]	> 0.5 µM	40 to 60%
O=C1CCC(N2Cc3c(ccc4c3OCC43CCN(Cc4cnn(-c5ccc(F)cc5)c4)CC3)C2=O)C(=O)N1 (centres unmarked) [Compound A312, 3-(1′-((1-(4-fluorophenyl)-1H-pyrazol-4-yl)methyl)-6-oxo-6,8-dihydro-2H,7H-spiro[furo[2,3-e]isoindole-3,4′-piperidin]-7-yl)piperidine-2,6-dione]	> 0.5 µM	40 to 60%
O=C1CCC(N2Cc3c(ccc4c3OCC43CCN(Cc4cnn(-c5cccc(Cl)c5)c4)CC3)C2=O)C(=O)N1 (centres unmarked) [Compound A313, 3-(1′-((1-(3-chlorophenyl)-1H-pyrazol-4-yl)methyl)-6-oxo-6,8-dihydro-2H,7H-spiro[furo[2,3-e]isoindole-3,4′-piperidin]-7-yl)piperidine-2,6-dione]	0.05 to 0.2 µM	60 to 80%
O=C1CCC(N2Cc3c(ccc4c3OCC43CCN(Cc4cnn(-c5ccc(Cl)cc5)c4)CC3)C2=O)C(=O)N1 (centres unmarked) [Compound A314, 3-(1′-((1-(4-chlorophenyl)-1H-pyrazol-4-yl)methyl)-6-oxo-6,8-dihydro-2H,7H-spiro[furo[2,3-e]isoindole-3,4′-piperidin]-7-yl)piperidine-2,6-dione]	< 0.05 µM	60 to 80%
O=C1CC[C@H](N2Cc3c(ccc4c3OCC43CCN(Cc4ccn(-c5ccc(Cl)cc5)n4)CC3)C2=O)C(=O)N1 [Compound A315, (S)-3-(1′-((1-(4-chlorophenyl)-1H-pyrazol-3-yl)methyl)-6-oxo-6,8-dihydro-2H,7H-spiro[furo[2,3-e]isoindole-3,4′-piperidin]-7-yl)piperidine-2,6-dione]	0.05 to 0.2 µM	40 to 60%
O=C1CCC(N2Cc3c(ccc4c3OCC43CCN(Cc4ccn(-c5cccc(F)c5)n4)CC3)C2=O)C(=O)N1 (centres unmarked) [Compound A316, 3-(1′-((1-(3-fluorophenyl)-1H-pyrazol-3-yl)methyl)-6-oxo-6,8-dihydro-2H,7H-spiro[furo[2,3-e]isoindole-3,4′-piperidin]-7-yl)piperidine-2,6-dione]	> 0.5 µM	40 to 60%
O=C1CC[C@H](N2Cc3c(ccc4c3OCC43CCN(Cc4ccccc4)CC3)C2=O)C(=O)N1 [Compound A317, (S)-3-(1′-benzyl-6-oxo-6,8-dihydro-2H,7H-spiro[furo[2,3-e]isoindole-3,4′-piperidin]-7-yl)piperidine-2,6-dione]	0.2 to 0.5 µM	40 to 60%
CC(c1ccccc1)N1CCC2(CC1)COc1c2ccc2c1CN(C1CCC(=O)NC1=O)C2=O (centres unmarked) [Compound A318, 3-(6-oxo-1′-(1-phenylethyl)-6,8-dihydro-2H,7H-spiro[furo [2,3-e]isoindole-3,4′-piperidin]-7-yl)piperidine-2,6-dione]	< 0.05 µM	60 to 80%
O=C1CCC(N2Cc3c(ccc4c3OCC43CCN(Cc4cnn(CC5COC5)c4)CC3)C2=O)C(=O)N1 (centres unmarked) [Compound A319, 3-(1′-((1-(oxetan-3-ylmethyl)-1H-pyrazol-4-yl)methyl)-6-oxo-6,8-dihydro-2H,7H-spiro[furo[2,3-e]isoindole-3,4′-piperidin]-7-yl)piperidine-2,6-dione]	> 0.5 µM	< 40%
CC1(Cn2cc(CN3CCC4(CC3)COc3c4ccc4c3CN(C3CCC(=O)NC3=O)C4=O)cn2)COC1 (centres unmarked) [Compound A320, 3-(1′-((1-((3-methyloxetan-3-yl)methyl)-1H-pyrazol-4-yl)methyl)-6-oxo-6,8-dihydro-2H,7H-spiro[furo[2,3-e]isoindole-3,4′-piperidin]-7-yl)piperidine-2,6-dione]	> 0.5 µM	40 to 60%
O=C1CCC(N2Cc3c(ccc4c3OCC43CCN(Cc4ccn(-c5ccccc5Cl)n4)CC3)C2=O)C(=O)N1 (centres unmarked) [Compound A321, 3-(1′-((1-(2-chlorophenyl)-1H-pyrazol-3-yl)methyl)-6-oxo-6,8-dihydro-2H,7H-spiro[furo[2,3-e]isoindole-3,4′-piperidin]-7-yl)piperidine-2,6-dione]	> 0.5 µM	< 40%
O=C1CCC(N2Cc3c(ccc4c3OCC43CCN(Cc4ccn(-c5ccc(F)cc5)n4)CC3)C2=O)C(=O)N1 (centres unmarked) [Compound A322, 3-(1′-((1-(4-fluorophenyl)-1H-pyrazol-3-yl)methyl)-6-oxo-6,8-dihydro-2H,7H-spiro[furo[2,3-e]isoindole-3,4′-piperidin]-7-yl)piperidine-2,6-dione]	> 0.5 µM	< 40%
O=C1CCC(N2Cc3c(ccc4c3OCC43CCN(Cc4ccn(-c5ccccc5F)n4)CC3)C2=O)C(=O)N1 (centres unmarked) [Compound A323, 3-(1′-((1-(2-fluorophenyl)-1H-pyrazol-3-yl)methyl)-6-oxo-6,8-dihydro-2H,7H-spiro[furo[2,3-e]isoindole-3,4′-piperidin]-7-yl)piperidine-2,6-dione]	> 0.5 µM	< 40%
O=C1CCC(N2Cc3c(ccc4c3OCC43CCN(Cc4nccc5c4CCCC5)CC3)C2=O)C(=O)N1 (centres unmarked) [Compound A324, 3-(6-oxo-1′-((5,6,7,8-tetrahydroisoquinolin-1-yl)methyl)-6,8-dihydro-2H,7H-spiro[furo [2,3-e]isoindole-3,4′-piperidin]-7-yl)piperidine-2,6-dione]	> 0.5 µM	40 to 60%
